Test results published in patent publication EP4722207A1, “OXOISOINDOLINYL-SUBSTITUTED TETRAHYDROPYRIMIDINEDIONE DERIVATIVE AND USE THEREOF” (Gluetacs Therapeutics (Shanghai) Co., Ltd., priority 2023, dated 2024).

Legend:
Format in all cases: cell-based
Details in all cases: compounds at 50 nM and 500 nM, 24 hours
WEE1 = target: T1, WEE1 (Homo sapiens, UniProt P30291+Q96SW2); assay: Western-blot assay, substrate protein degradation in hPBMCs: WEE1
T1 construct: effects of the compounds of the present disclosure on the expression of target proteins in cells; endogenous in cells; host or cells: human PBMCs (hPBMCs)

IKZF1 = target: T2, IKZF1 (Homo sapiens, UniProt Q13422+Q96SW2); assay: Western-blot assay, substrate protein degradation in hPBMCs: IKZF1
T2 construct: effects of the compounds of the present disclosure on the expression of target proteins in cells; endogenous in cells; host or cells: human PBMCs (hPBMCs)

IKZF2 = target: T3, IKZF2 (Homo sapiens, UniProt Q96SW2+Q9UKS7); assay: Western-blot assay, substrate protein degradation in hPBMCs: IKZF2
T3 construct: effects of the compounds of the present disclosure on the expression of target proteins in cells; endogenous in cells; host or cells: human PBMCs (hPBMCs)

IKZF3 = target: T4, IKZF3 (Homo sapiens, UniProt Q96SW2+Q9UKT9); assay: Western-blot assay, substrate protein degradation in hPBMCs: IKZF3
T4 construct: effects of the compounds of the present disclosure on the expression of target proteins in cells; endogenous in cells; host or cells: human PBMCs (hPBMCs)

CK1α = target: T5, CK1α (Homo sapiens, UniProt P48729+Q96SW2); assay: Western-blot assay, substrate protein degradation in hPBMCs: CK1α
T5 construct: effects of the compounds of the present disclosure on the expression of target proteins in cells; endogenous in cells; host or cells: human PBMCs (hPBMCs)

GSPT1 = target: T6, GSPT1 (Homo sapiens, UniProt P15170+Q96SW2); assay: Western-blot assay, substrate protein degradation in hPBMCs: GSPT1
T6 construct: effects of the compounds of the present disclosure on the expression of target proteins in cells; endogenous in cells; host or cells: human PBMCs (hPBMCs)
T6 sequence (P15170 whole entry): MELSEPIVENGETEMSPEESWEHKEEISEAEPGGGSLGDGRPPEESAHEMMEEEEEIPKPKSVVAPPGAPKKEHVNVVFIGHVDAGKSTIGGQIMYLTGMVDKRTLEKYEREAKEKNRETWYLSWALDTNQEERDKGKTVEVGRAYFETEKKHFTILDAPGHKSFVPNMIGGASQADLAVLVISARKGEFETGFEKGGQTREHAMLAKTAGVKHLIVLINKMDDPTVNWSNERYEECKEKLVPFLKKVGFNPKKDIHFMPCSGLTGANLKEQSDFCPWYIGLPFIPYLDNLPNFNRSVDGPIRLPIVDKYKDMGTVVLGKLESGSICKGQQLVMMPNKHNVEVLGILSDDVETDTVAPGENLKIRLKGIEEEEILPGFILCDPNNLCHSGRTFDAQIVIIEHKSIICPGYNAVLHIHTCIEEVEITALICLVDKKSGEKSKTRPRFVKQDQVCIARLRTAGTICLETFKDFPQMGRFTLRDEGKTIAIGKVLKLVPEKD
T6 sequence (Q96SW2 whole entry): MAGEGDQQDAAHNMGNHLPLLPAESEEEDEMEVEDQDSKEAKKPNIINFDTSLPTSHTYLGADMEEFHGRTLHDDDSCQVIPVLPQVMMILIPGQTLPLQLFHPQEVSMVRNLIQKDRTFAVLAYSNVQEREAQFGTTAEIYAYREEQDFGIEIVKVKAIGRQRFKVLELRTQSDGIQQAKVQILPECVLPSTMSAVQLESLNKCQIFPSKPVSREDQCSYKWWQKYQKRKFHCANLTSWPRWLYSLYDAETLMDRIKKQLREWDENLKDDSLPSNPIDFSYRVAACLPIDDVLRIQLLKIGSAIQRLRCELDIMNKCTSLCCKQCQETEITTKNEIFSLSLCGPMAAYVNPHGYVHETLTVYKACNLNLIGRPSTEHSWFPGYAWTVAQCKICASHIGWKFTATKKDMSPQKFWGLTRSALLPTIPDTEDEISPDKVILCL
T6 sequence (Q16531 whole entry partner): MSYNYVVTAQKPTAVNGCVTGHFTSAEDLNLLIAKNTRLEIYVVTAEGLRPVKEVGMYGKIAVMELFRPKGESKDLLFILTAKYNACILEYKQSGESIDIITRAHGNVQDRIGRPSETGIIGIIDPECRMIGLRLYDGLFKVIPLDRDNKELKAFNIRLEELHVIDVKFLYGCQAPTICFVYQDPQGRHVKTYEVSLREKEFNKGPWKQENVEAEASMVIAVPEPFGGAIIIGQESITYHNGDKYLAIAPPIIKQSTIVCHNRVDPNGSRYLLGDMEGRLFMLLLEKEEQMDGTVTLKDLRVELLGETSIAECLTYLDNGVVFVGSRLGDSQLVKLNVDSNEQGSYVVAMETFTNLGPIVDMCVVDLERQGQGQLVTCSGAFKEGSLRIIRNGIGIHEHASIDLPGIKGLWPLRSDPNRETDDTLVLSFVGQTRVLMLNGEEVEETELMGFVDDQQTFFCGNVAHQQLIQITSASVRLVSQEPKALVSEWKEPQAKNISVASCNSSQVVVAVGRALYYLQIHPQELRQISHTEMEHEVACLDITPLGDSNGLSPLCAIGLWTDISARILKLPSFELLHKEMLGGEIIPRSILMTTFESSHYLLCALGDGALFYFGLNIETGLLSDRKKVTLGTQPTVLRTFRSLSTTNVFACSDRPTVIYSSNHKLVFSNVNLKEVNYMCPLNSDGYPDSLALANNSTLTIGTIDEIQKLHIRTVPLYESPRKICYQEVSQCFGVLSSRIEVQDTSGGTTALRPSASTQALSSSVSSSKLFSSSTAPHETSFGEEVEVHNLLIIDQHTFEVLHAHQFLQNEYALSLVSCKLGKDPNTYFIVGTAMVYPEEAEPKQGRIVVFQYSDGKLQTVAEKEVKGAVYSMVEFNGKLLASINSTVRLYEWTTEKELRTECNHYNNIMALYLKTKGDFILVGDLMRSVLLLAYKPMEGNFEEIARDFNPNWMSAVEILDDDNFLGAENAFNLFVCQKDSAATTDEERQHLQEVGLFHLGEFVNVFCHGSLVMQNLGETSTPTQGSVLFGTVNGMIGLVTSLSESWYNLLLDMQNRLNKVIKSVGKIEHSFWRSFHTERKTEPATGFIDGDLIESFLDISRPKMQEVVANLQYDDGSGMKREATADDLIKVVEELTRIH

T3 sequence (Q9UKS7 whole entry): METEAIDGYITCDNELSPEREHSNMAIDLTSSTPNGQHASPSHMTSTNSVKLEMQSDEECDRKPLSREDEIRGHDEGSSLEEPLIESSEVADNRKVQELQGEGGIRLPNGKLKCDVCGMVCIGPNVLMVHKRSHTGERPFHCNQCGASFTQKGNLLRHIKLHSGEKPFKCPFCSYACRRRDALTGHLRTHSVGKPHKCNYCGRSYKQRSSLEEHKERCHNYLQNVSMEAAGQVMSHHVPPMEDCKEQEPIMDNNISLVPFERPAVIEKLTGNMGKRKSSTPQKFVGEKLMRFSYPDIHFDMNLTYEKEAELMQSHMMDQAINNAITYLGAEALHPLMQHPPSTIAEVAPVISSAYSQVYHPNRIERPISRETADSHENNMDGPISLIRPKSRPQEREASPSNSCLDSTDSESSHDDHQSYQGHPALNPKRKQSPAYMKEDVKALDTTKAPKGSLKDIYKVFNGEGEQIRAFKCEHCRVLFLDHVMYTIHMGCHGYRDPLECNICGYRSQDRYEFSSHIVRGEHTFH
T3 sequence (Q96SW2 whole entry): as the sequence (Q96SW2 whole entry) above
T3 sequence (Q16531 whole entry partner): as the sequence (Q16531 whole entry partner) above
T1 sequence (P30291 whole entry): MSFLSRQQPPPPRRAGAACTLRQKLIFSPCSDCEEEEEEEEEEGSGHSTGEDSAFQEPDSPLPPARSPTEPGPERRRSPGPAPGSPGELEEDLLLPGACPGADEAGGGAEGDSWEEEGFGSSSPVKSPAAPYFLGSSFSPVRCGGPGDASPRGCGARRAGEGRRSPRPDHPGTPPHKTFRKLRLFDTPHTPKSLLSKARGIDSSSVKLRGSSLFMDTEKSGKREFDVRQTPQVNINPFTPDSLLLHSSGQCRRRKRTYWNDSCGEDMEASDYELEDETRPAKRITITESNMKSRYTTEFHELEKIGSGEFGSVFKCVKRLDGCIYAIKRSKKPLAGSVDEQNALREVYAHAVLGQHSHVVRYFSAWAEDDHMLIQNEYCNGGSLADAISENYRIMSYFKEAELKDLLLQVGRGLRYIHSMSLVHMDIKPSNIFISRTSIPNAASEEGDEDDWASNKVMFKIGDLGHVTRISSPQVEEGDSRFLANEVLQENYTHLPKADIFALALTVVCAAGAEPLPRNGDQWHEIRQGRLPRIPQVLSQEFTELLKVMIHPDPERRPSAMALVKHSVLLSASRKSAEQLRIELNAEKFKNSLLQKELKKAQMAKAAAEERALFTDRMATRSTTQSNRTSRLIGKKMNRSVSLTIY
T1 sequence (Q96SW2 whole entry): as the sequence (Q96SW2 whole entry) above
T1 sequence (Q16531 whole entry partner): as the sequence (Q16531 whole entry partner) above
T4 sequence (Q9UKT9 whole entry): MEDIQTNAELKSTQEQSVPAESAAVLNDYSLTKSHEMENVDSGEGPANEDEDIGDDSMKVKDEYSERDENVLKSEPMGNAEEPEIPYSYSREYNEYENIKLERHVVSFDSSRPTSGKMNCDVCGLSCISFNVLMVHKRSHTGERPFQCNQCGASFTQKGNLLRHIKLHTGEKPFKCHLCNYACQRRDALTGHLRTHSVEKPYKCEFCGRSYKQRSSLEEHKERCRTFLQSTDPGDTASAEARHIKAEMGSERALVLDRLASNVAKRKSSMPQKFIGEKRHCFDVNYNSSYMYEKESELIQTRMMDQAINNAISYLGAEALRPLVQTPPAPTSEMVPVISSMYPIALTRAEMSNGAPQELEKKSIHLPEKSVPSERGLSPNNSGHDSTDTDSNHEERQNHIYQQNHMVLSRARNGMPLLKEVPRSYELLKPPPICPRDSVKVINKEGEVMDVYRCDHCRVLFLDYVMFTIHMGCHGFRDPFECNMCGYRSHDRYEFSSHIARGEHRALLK
T4 sequence (Q96SW2 whole entry): as the sequence (Q96SW2 whole entry) above
T4 sequence (Q16531 whole entry partner): as the sequence (Q16531 whole entry partner) above
T5 sequence (P48729 whole entry): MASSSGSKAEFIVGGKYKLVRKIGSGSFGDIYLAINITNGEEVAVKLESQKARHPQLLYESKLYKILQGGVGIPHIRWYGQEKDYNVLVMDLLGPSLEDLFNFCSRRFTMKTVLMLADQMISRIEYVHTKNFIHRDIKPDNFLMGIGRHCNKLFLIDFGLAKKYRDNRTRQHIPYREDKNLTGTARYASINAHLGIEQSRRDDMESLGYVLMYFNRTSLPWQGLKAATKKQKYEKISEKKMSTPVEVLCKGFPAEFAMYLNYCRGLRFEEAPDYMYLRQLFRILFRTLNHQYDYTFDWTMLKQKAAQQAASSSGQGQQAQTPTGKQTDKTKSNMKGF
T5 sequence (Q96SW2 whole entry): as the sequence (Q96SW2 whole entry) above
T5 sequence (Q16531 whole entry partner): as the sequence (Q16531 whole entry partner) above

SMILES	WEE1 substrate protein remaining % (WEE1)	IKZF1 substrate protein remaining % (IKZF1)	IKZF2 substrate protein remaining % (IKZF2)	IKZF3 substrate protein remaining % (IKZF3)	CK1α substrate protein remaining % (CK1α)	GSPT1 substrate protein remaining % (GSPT1)
O=C1CCN(N2C(=O)c3ccc(CN4CCN(c5cc(Cl)nnc5Cl)CC4)cc3C2=O)C(=O)N1 [GT-07036, 5-((4-(3,6-dichloropyridazin-4-yl)piperazin-1-yl)methyl)-2-(2,4-dioxotetrahydropyrimidin-1(2H)-yl)isoindoline-1,3-dione]	B ("B" is defined as 80%< substrate protein remaining %≤ 100%)	B ("B" is defined as 80%< substrate protein remaining %≤ 100%)	B ("B" is defined as 80%< substrate protein remaining %≤ 100%)	B ("B" is defined as 80%< substrate protein remaining %≤ 100%)	B ("B" is defined as 80%< substrate protein remaining %≤ 100%)	A ("A" is defined as 0% ≤ substrate protein remaining % ≤ 80%)
O=C1CCN(N2C(=O)c3ccc(CN4CCN(c5ncncn5)CC4)cc3C2=O)C(=O)N1 [GT-07037, 5-((4-(1,3,5-triazin-2-yl)piperazin-1-yl)methyl)-2-(2,4-dioxotetrahydropyrimidin-1(2H)-yl)isoindoline-1,3-dione]	B ("B" is defined as 80%< substrate protein remaining %≤ 100%)	B ("B" is defined as 80%< substrate protein remaining %≤ 100%)	B ("B" is defined as 80%< substrate protein remaining %≤ 100%)	B ("B" is defined as 80%< substrate protein remaining %≤ 100%)	B ("B" is defined as 80%< substrate protein remaining %≤ 100%)	A ("A" is defined as 0% ≤ substrate protein remaining % ≤ 80%)
O=C1CCN(N2C(=O)c3ccc(CN4CCN(c5c(Cl)cncc5Cl)CC4)cc3C2=O)C(=O)N1 [GT-07038, 5-((4-(3,5-dichloropyridin-4-yl)piperazin-1-yl)methyl)-2-(2,4-dioxotetrahydropyrimidin-1(2H)-yl)isoindoline-1,3-dione]	A ("A" is defined as 0% ≤ substrate protein remaining % ≤ 80%)	A ("A" is defined as 0% ≤ substrate protein remaining % ≤ 80%)	A ("A" is defined as 0% ≤ substrate protein remaining % ≤ 80%)	A ("A" is defined as 0% ≤ substrate protein remaining % ≤ 80%)	A ("A" is defined as 0% ≤ substrate protein remaining % ≤ 80%)	A ("A" is defined as 0% ≤ substrate protein remaining % ≤ 80%)
O=C1CCN(N2Cc3cc(CN4CCN(c5ccnc(Cl)c5F)CC4)ccc3C2=O)C(=O)N1 [GT-07069, 1-(5-((4-(2-chloro-3-fluoropyridin-4-yl)piperazin-1-yl)methyl)-1-oxoisoindolin-2-yl)dihydropyrimidine-2,4(1H,3H)-dione]	A ("A" is defined as 0% ≤ substrate protein remaining % ≤ 80%)	B ("B" is defined as 80%< substrate protein remaining %≤ 100%)	B ("B" is defined as 80%< substrate protein remaining %≤ 100%)	B ("B" is defined as 80%< substrate protein remaining %≤ 100%)	B ("B" is defined as 80%< substrate protein remaining %≤ 100%)	B ("B" is defined as 80%< substrate protein remaining %≤ 100%)
O=C1CCN(N2C(=O)c3ccc(CN4CCN(c5ccncc5)CC4)cc3C2=O)C(=O)N1 [GT-07073, 2-(2,4-dioxotetrahydropyrimidin-1(2H)-yl)-5-((4-(pyridin-4-yl)piperazin-1-yl)methyl)isoindoline-1,3-dione]	A ("A" is defined as 0% ≤ substrate protein remaining % ≤ 80%)	B ("B" is defined as 80%< substrate protein remaining %≤ 100%)	B ("B" is defined as 80%< substrate protein remaining %≤ 100%)	B ("B" is defined as 80%< substrate protein remaining %≤ 100%)	B ("B" is defined as 80%< substrate protein remaining %≤ 100%)	B ("B" is defined as 80%< substrate protein remaining %≤ 100%)
O=C1CCN(N2Cc3cc(CN4CCN(c5cnccn5)CC4)ccc3C2=O)C(=O)N1 [GT-07160, 1-(1-oxo-5-((4-(pyrazin-2-yl)piperazin-1-yl)methyl)isoindolin-2-yl)dihydropyrimidine-2,4(1H,3H)-dione]	B ("B" is defined as 80%< substrate protein remaining %≤ 100%)	B ("B" is defined as 80%< substrate protein remaining %≤ 100%)	A ("A" is defined as 0% ≤ substrate protein remaining % ≤ 80%)	B ("B" is defined as 80%< substrate protein remaining %≤ 100%)	A ("A" is defined as 0% ≤ substrate protein remaining % ≤ 80%)	A ("A" is defined as 0% ≤ substrate protein remaining % ≤ 80%)
Cc1cc(N2CCN(Cc3ccc4c(c3)C(=O)N(N3CCC(=O)NC3=O)C4=O)CC2)ccn1 [GT-07161, 2-(2,4-dioxotetrahydropyrimidin-1(2H)-yl)-5-((4-(2-methylpyridin-4-yl)piperazin-1-yl)methyl)isoindoline-1,3-dione]	B ("B" is defined as 80%< substrate protein remaining %≤ 100%)	B ("B" is defined as 80%< substrate protein remaining %≤ 100%)	A ("A" is defined as 0% ≤ substrate protein remaining % ≤ 80%)	B ("B" is defined as 80%< substrate protein remaining %≤ 100%)	B ("B" is defined as 80%< substrate protein remaining %≤ 100%)	A ("A" is defined as 0% ≤ substrate protein remaining % ≤ 80%)
O=C1CCN(N2C(=O)c3ccc(CN4CCN(c5nccc(F)c5F)CC4)cc3C2=O)C(=O)N1 [GT-07162, 5-((4-(3,4-difluoropyridin-2-yl)piperazin-1-yl)methyl)-2-(2,4-dioxotetrahydropyrimidin-1(2H)-yl)isoindoline-1,3-dione]	B ("B" is defined as 80%< substrate protein remaining %≤ 100%)	B ("B" is defined as 80%< substrate protein remaining %≤ 100%)	A ("A" is defined as 0% ≤ substrate protein remaining % ≤ 80%)	B ("B" is defined as 80%< substrate protein remaining %≤ 100%)	A ("A" is defined as 0% ≤ substrate protein remaining % ≤ 80%)	A ("A" is defined as 0% ≤ substrate protein remaining % ≤ 80%)
O=C1CCN(N2C(=O)c3ccc(CN4CCN(c5ccncc5Br)CC4)cc3C2=O)C(=O)N1 [GT-07163, 5-((4-(3-bromopyridin-4-yl)piperazin-1-yl)methyl)-2-(2,4-dioxotetrahydropyrimidin-1(2H)-yl)isoindoline-1,3-dione]	B ("B" is defined as 80%< substrate protein remaining %≤ 100%)	B ("B" is defined as 80%< substrate protein remaining %≤ 100%)	A ("A" is defined as 0% ≤ substrate protein remaining % ≤ 80%)	B ("B" is defined as 80%< substrate protein remaining %≤ 100%)	B ("B" is defined as 80%< substrate protein remaining %≤ 100%)	A ("A" is defined as 0% ≤ substrate protein remaining % ≤ 80%)
O=C1CCN(N2C(=O)c3ccc(CN4CCN(c5ccncc5F)CC4)cc3C2=O)C(=O)N1 [GT-07164, 2-(2,4-dioxotetrahydropyrimidin-1(2H)-yl)-5-((4-(3-fluoropyridin-4-yl)piperazin-1-yl)methyl)isoindoline-1,3-dione]	B ("B" is defined as 80%< substrate protein remaining %≤ 100%)	B ("B" is defined as 80%< substrate protein remaining %≤ 100%)	A ("A" is defined as 0% ≤ substrate protein remaining % ≤ 80%)	B ("B" is defined as 80%< substrate protein remaining %≤ 100%)	B ("B" is defined as 80%< substrate protein remaining %≤ 100%)	A ("A" is defined as 0% ≤ substrate protein remaining % ≤ 80%)
O=C1CCN(N2C(=O)c3ccc(CN4CCN(c5ccncc5Cl)CC4)cc3C2=O)C(=O)N1 [GT-07165, 5-((4-(3-chloropyridin-4-yl)piperazin-1-yl)methyl)-2-(2,4-dioxotetrahydropyrimidin-1(2H)-yl)isoindoline-1,3-dione]	B ("B" is defined as 80%< substrate protein remaining %≤ 100%)	B ("B" is defined as 80%< substrate protein remaining %≤ 100%)	A ("A" is defined as 0% ≤ substrate protein remaining % ≤ 80%)	B ("B" is defined as 80%< substrate protein remaining %≤ 100%)	B ("B" is defined as 80%< substrate protein remaining %≤ 100%)	A ("A" is defined as 0% ≤ substrate protein remaining % ≤ 80%)
